Results taken from the NIST ThermoML archive (doi:10.1016/j.jct.2017.02.014).
± gives the expanded uncertainty stated by the source.

Experiments:
[1] = refractive index (other wavelength) (dimensionless); xn = mol fraction of the nth substance listed; settings: 100 kPa, Liquid, Wavelength=632.8 nm, minimum deviation angle method
[2] = heat capacity at constant pressure per volume; xn = mol fraction of the nth substance listed; settings: 102.6 kPa, Liquid, DSC, x1 = 0.118

CCCC[n+]1ccccc1.F[B-](F)(F)F [1-butylpyridinium tetrafluoroborate] + CCO
[1]
Settings | refractive index
281.73 K, x1 = 1 | 1.4481 ± 0.0003
282.78 K, x1 = 1 | 1.4478 ± 0.0003
284.05 K, x1 = 0.518 | 1.4307 ± 0.0003
284.14 K, x1 = 1 | 1.4475 ± 0.0003
284.68 K, x1 = 0.394 | 1.4224 ± 0.0004
285.33 K, x1 = 0.518 | 1.4304 ± 0.0003
285.74 K, x1 = 1 | 1.4471 ± 0.0003
286.42 K, x1 = 0.394 | 1.4219 ± 0.0004
286.94 K, x1 = 1 | 1.4468 ± 0.0003
287.46 K, x1 = 0.02 | 1.3684 ± 0.0004
287.51 K, x1 = 0.518 | 1.4298 ± 0.0003
287.68 K, x1 = 0.394 | 1.4215 ± 0.0004
288.24 K, x1 = 1 | 1.4464 ± 0.0003
288.69 K, x1 = 0.518 | 1.4295 ± 0.0003
288.71 K, x1 = 0.02 | 1.3679 ± 0.0004
289.37 K, x1 = 0.394 | 1.4211 ± 0.0003
289.38 K, x1 = 1 | 1.4461 ± 0.0003
289.82 K, x1 = 0.02 | 1.3675 ± 0.0004
290.14 K, x1 = 0.518 | 1.429 ± 0.0003
290.31 K, x1 = 0.394 | 1.4207 ± 0.0003
290.37 K, x1 = 1 | 1.4458 ± 0.0003
290.46 K, x1 = 0.313 | 1.414 ± 0.0004
291.26 K, x1 = 0.02 | 1.3669 ± 0.0004
291.42 K, x1 = 0.394 | 1.4204 ± 0.0003
291.42 K, x1 = 0.518 | 1.4287 ± 0.0003
292.08 K, x1 = 0.313 | 1.4134 ± 0.0004
292.15 K, x1 = 1 | 1.4454 ± 0.0003
292.64 K, x1 = 0.02 | 1.3663 ± 0.0004
293.1 K, x1 = 0.313 | 1.4131 ± 0.0004
293.41 K, x1 = 1 | 1.4451 ± 0.0003
294.23 K, x1 = 0.313 | 1.4128 ± 0.0004
294.38 K, x1 = 0.02 | 1.3657 ± 0.0004
295 K, x1 = 1 | 1.4446 ± 0.0003
295.32 K, x1 = 0.313 | 1.4124 ± 0.0003
296.19 K, x1 = 0.258 | 1.4062 ± 0.0003
296.35 K, x1 = 0.199 | 1.3993 ± 0.0003
296.35 K, x1 = 0.313 | 1.4121 ± 0.0003
296.89 K, x1 = 1 | 1.444 ± 0.0003
296.98 K, x1 = 0.06 | 1.3745 ± 0.0005
296.98 K, x1 = 0.142 | 1.3902 ± 0.0004
297.25 K, x1 = 0.095 | 1.3817 ± 0.0004
297.52 K, x1 = 0.258 | 1.4056 ± 0.0004
298.06 K, x1 = 0.142 | 1.3899 ± 0.0005
298.21 K, x1 = 0.06 | 1.374 ± 0.0005
298.51 K, x1 = 0.199 | 1.3986 ± 0.0004
298.56 K, x1 = 0.095 | 1.3813 ± 0.0004
298.9 K, x1 = 0.258 | 1.4052 ± 0.0003
299.34 K, x1 = 0.142 | 1.3895 ± 0.0004
299.43 K, x1 = 0.06 | 1.3736 ± 0.0005
299.58 K, x1 = 0.199 | 1.3982 ± 0.0004
299.67 K, x1 = 0.095 | 1.3809 ± 0.0004
299.98 K, x1 = 0.258 | 1.4048 ± 0.0003
300.34 K, x1 = 0.142 | 1.3892 ± 0.0004
300.79 K, x1 = 0.095 | 1.3805 ± 0.0004
300.89 K, x1 = 0.06 | 1.3731 ± 0.0005
300.95 K, x1 = 0.258 | 1.4046 ± 0.0003
301.1 K, x1 = 0.199 | 1.3977 ± 0.0004
301.77 K, x1 = 0.095 | 1.3802 ± 0.0004
301.77 K, x1 = 0.142 | 1.3886 ± 0.0004
301.92 K, x1 = 0.258 | 1.4043 ± 0.0003
302.08 K, x1 = 0.06 | 1.3726 ± 0.0005
302.16 K, x1 = 0.199 | 1.3974 ± 0.0003
302.93 K, x1 = 0.095 | 1.3798 ± 0.0004
302.94 K, x1 = 0.142 | 1.3883 ± 0.0004
303.3 K, x1 = 0.199 | 1.397 ± 0.0004
303.31 K, x1 = 0.06 | 1.3722 ± 0.0005

[2]
Settings | heat capacity [J/K/m3]
291.64 K | 2400000 ± 110000
291.84 K | 2413000 ± 110000
292.04 K | 2409000 ± 110000
292.24 K | 2412000 ± 110000
292.44 K | 2447000 ± 110000
292.64 K | 2446000 ± 110000
292.84 K | 2430000 ± 110000
293.04 K | 2446000 ± 110000
293.24 K | 2456000 ± 110000
293.44 K | 2452000 ± 110000
293.64 K | 2454000 ± 110000
293.84 K | 2466000 ± 110000
294.04 K | 2479000 ± 110000
294.24 K | 2512000 ± 110000
294.44 K | 2465000 ± 110000
294.64 K | 2512000 ± 110000
294.84 K | 2537000 ± 110000
295.04 K | 2539000 ± 110000
295.24 K | 2557000 ± 120000
295.44 K | 2564000 ± 120000
295.64 K | 2619000 ± 120000
295.84 K | 2578000 ± 120000
296.04 K | 2655000 ± 120000
296.24 K | 2606000 ± 120000
296.44 K | 2659000 ± 140000
296.64 K | 2847000 ± 140000
296.86 K | 2825000 ± 180000
297.04 K | 2338000 ± 180000
297.24 K | 2271000 ± 100000
297.44 K | 2220000 ± 93000
297.64 K | 2228000 ± 93000
297.84 K | 2203000 ± 92000
298.04 K | 2201000 ± 91000
298.24 K | 2198000 ± 91000
298.44 K | 2180000 ± 90000
298.64 K | 2187000 ± 90000
298.84 K | 2145000 ± 88000
299.04 K | 2169000 ± 90000
299.24 K | 2164000 ± 89000
299.44 K | 2169000 ± 89000
299.64 K | 2152000 ± 88000
299.84 K | 2153000 ± 88000
300.04 K | 2150000 ± 88000
300.24 K | 2151000 ± 88000
300.44 K | 2144000 ± 88000
300.64 K | 2130000 ± 86000
300.84 K | 2137000 ± 87000
301.24 K | 2132000 ± 86000
301.44 K | 2139000 ± 88000
301.64 K | 2140000 ± 88000
301.84 K | 2124000 ± 86000
302.04 K | 2130000 ± 86000
302.24 K | 2117000 ± 86000
302.44 K | 2124000 ± 86000
302.64 K | 2130000 ± 86000
302.84 K | 2122000 ± 86000
303.04 K | 2129000 ± 86000
303.24 K | 2131000 ± 86000
303.44 K | 2121000 ± 86000
303.63 K | 2121000 ± 86000
303.83 K | 2127000 ± 86000
304.04 K | 2126000 ± 86000
304.24 K | 2122000 ± 86000
304.44 K | 2130000 ± 86000
304.63 K | 2120000 ± 86000
304.83 K | 2123000 ± 86000
305.04 K | 2117000 ± 86000
305.24 K | 2113000 ± 85000
305.44 K | 2107000 ± 85000
305.63 K | 2112000 ± 85000
306.08 K | 2110000 ± 82000
306.51 K | 2108000 ± 82000
306.95 K | 2108000 ± 82000
307.39 K | 2107000 ± 82000
307.83 K | 2106000 ± 82000
308.26 K | 2106000 ± 82000
308.7 K | 2105000 ± 82000
309.14 K | 2104000 ± 82000
309.58 K | 2104000 ± 82000
310.02 K | 2104000 ± 82000
310.45 K | 2104000 ± 81000
310.89 K | 2105000 ± 82000
311.33 K | 2103000 ± 81000
311.77 K | 2102000 ± 81000
312.2 K | 2102000 ± 81000
312.64 K | 2102000 ± 81000
313.08 K | 2103000 ± 81000
313.52 K | 2101000 ± 81000
313.96 K | 2103000 ± 81000
314.39 K | 2101000 ± 81000
314.83 K | 2103000 ± 81000
315.27 K | 2102000 ± 81000
315.71 K | 2103000 ± 81000
316.14 K | 2102000 ± 81000
316.58 K | 2103000 ± 81000
317.02 K | 2103000 ± 81000
317.46 K | 2103000 ± 81000
317.89 K | 2105000 ± 82000
318.33 K | 2104000 ± 81000
318.77 K | 2106000 ± 82000
319.21 K | 2105000 ± 82000
319.65 K | 2107000 ± 82000
320.08 K | 2107000 ± 82000
320.52 K | 2108000 ± 82000
320.96 K | 2109000 ± 82000
321.4 K | 2109000 ± 82000
321.84 K | 2109000 ± 82000
322.27 K | 2110000 ± 82000
322.71 K | 2111000 ± 82000
323.15 K | 2110000 ± 82000
